Consider five molecules from patent US8324395B2, “Heterocyclic compound and use thereof” (Takeda Pharmaceutical Company Limited, priority 2007, dated 2012).

For one test, the target named is T1, BRAF (V600E) kinase (Homo sapiens, UniProt P15056, V600E).
T1 construct: Flag (N); made in house; host or cells: SF-21 insect cells, recombinant baculovirus BAC-V600E
In words: Determination of BRAF (V600E) kinase inhibitory activity. It is filed as biochemical. The conditions noted are these: 1.0 μM test compound; BRAF (V600E) enzyme, GST-MEK1 (K96R) substrate, [γ-32P]ATP; read-out: Inhibitory rate (%) at 1.0 μM. The procedure:
Human BRAF gene was cloned by PCR using human Testis cDNA library (Clontech) as a template. The primer used for PCR was prepared from base sequence (Genbank Accession No.: NM_004333) information of BRAF gene by adding a base sequence encoding flag peptide and a recognition sequence of the restriction enzyme to area encoding the BRAF kinase domain region, so that the protein contains an N-terminal. Flag. The primer base sequence is shown below.
The PCR reaction was conducted using Pyrobest (Takara Shuzo Co., Ltd). The obtained PCR product was electrophoresed on agarose gel (1%), the DNA fragment amplified by PCR was recovered from the gel, and then digested with restriction enzymes EcoRI and SalI. The DNA treated with the restriction enzymes was electrophoresed on agarose gel (1%), and the obtained DNA fragment was recovered. The recovered DNA fragment was ligated to plasmid pFASTBAC1 (Invitrogen) digested with restriction enzymes EcoRI and SalI to give expression plasmid pFB-BRAF, and the base sequence of the insert fragment was confirmed. In addition, mutation was introduced into V600E using a Quick change Site Directed Mutagenesis kit (Stratagene). The base sequences of the primers used are shown in the following.
The obtained plasmid was sequenced to confirm the introduction of mutation into V600E. The DNA was digested with restriction enzymes EcoRI and SalI, DNA treated with the restriction enzymes was electrophoresed on agarose gel (1%), and the obtained DNA fragment was recovered. The recovered DNA fragment was ligated to plasmid pFASTBAC1 (Invitrogen) digested with restriction enzymes EcoRI and SalI to give expression plasmid pFB-V600E.
Using BAC-TO-BAC Baculovirus Expression System (Invitrogen), virus stock BAC-V600E of recombinant baculovirus was prepared.
SF-21 cells were sown at 1×10^6 cells/mL to Sf-900II SFM medium (1 L, Invitrogen) containing 10% fetal bovine serum (Trace), 50 mg/L Gentamicin (Invitrogen) and 0.1% Pluronic F-68 (Invitrogen), and shaking culture was performed using a 2 L volume Erlenmeyer flask at 27° C., 100 rpm. After culturing for 24 hr, recombinant baculovirus BAC-V600E (13.4 mL) was added to the mixture, and the mixture was further cultured for 3 days. The culture medium was centrifuged at 2,000 rpm for 5 min to give virus-infected cells. The infected cells were washed with a phosphate buffered saline (Invitrogen), centrifuged under the same conditions, and the cells were preserved at −80° C. The cryopreserved cells were thawed in ice, suspended in buffer A (50 mM Tris buffer (30 mL, pH 7.4) containing 20% glycerol, 0.15 M NaCl) supplemented with Complete Protease Inhibitor (Boehringer), and ruptured 3 times with a Polytron homogenizer (Kinematica) at 20,000 rpm for 30 sec. The ruptured medium was clarified by centrifugation at 40,000 rpm for 30 min and filtered with a 0.45 μm filter. The filtrate was passed through a column packed with Anti-FLAG M2 Affinity Gel (4 mL, Sigma) at a flow rate of about 0.5 mL/min. The column was washed with buffer A, and eluted with buffer A containing 100 μg/mL of FLAG peptide. The buffer of this eluate was exchanged using NAP25 column (Amersham Bioscience) equilibrated with buffer A and the fractions were cryopreserved at −80° C.
A test compound (2.5 μL) dissolved in dimethyl sulfoxide (DMSO) was added to 37.5 μL of a reaction mixture (25 mM HEPES (pH 7.5), 10 mM magnesium acetate, 1 mM dithiothreitol) containing BRAF (V600E) enzyme (30 ng) and recombinant type protein GST-MEK1 (K96R) 250 ng, and the mixture was incubated at room temperature for 10 min. ATP solution (10 μL, 2.5 μM ATP, 0.1 μCi [γ-^32P]ATP) was added to the obtained mixture, and the mixture was reacted at room temperature for 20 min. The reaction was quenched by adding 50 μL of ice-cooled. 20% trichloroacetic acid (Wako Pure Chemical Industries, Ltd.) to the reaction mixture. […]

Test [1] has as its system human colon cancer cell HT-29. In words: Colon cancer cell HT-29 growth suppressive action in vitro. The format is cell-based. Conditions: 72 h, HT-29 cells, 3 days culture, SRB staining of cell protein. The procedure: A cell suspension (100 μL, 3,000 cells/well) of human colon cancer cell HT-29 (purchased from ATCC) was plated in a 96-well plate, and the cells were cultured at 37° C. in a 5% carbon dioxide gas incubator. The next day, 2-fold serial dilution of each test compound solution (diluted from maximum concentration 20 μM) (100 μL) was added, and the cells were cultured for 3 days. The culture medium containing the test compound was removed, and the cells were washed with phosphate buffer (PBS). A 50% trichloroacetic acid solution was added to the final concentration of 10% (v/v), and the mixture was stood overnight at 4° C., whereby the cells were fixed to the plate. Then, a dye SRB 0.4% (w/v) solution (dissolved in 1% acetic acid) was added at 50 μl/well, whereby the cell protein was fixed and stained (Skehan et al., Journal Of National Cancer Institute, vol. 82, pp. 1107-1112, 1990). The cells were washed 3 times with 1% acetic acid solution (200 μL/well), and 100 μL of an extract (10 mM Tris buffer) was added to extract the dye. The absorbance at an absorption wavelength […] was measured, and cell amount was measured as a protein amount. Taking the protein amount of the control group free of the test compound solution as 100%, the proportion of the residual protein amount of each treatment group was determined and the concentration of the compound necessary for suppressing the residual cell amount to 50% of the control (IC50 value) was calculated.
(In SRB staining, fixed cells bind dye roughly in proportion to their protein.)

T1 sequence (P15056 457-717 V600E limits assumed): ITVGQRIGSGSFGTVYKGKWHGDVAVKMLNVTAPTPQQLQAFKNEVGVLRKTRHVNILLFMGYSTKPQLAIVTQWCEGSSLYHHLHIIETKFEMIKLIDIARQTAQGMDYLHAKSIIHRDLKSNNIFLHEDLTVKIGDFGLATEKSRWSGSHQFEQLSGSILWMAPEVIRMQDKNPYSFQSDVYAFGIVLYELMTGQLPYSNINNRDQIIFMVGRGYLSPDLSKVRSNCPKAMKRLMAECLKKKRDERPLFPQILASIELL

In the case of `CC(C)(C#N)c1cccc(C(=O)Nc2cccc(Oc3ccc4nc(NC(=O)C5CC5)sc4c3)c2)c1` [Example A12, 3-(1-cyano-1-methylethyl)-N-[3-({2-[(cyclopropylcarbonyl)amino]-1,3-benzothiazol-6-yl}oxy)phenyl]benzamide], at BRAF (V600E) kinase, the inhibition at 1 µM stood at 100%. Besides, the IC50 in test [1] was less than 500 nM. In test [1], `COc1ccc(NC(=O)c2cccc(C(C)(C)C#N)c2)cc1Oc1ccc2nc(NC(=O)CN3CCN(C)CC3)sc2c1` [Example A23, 3-(1-cyano-1-methylethyl)-N-{4-methoxy-3-[(2-{[(4-methylpiperazin-1-yl)acetyl]amino}-1,3-benzothiazol-6-yl)oxy]phenyl}benzamide] came in with an IC50 of less than 500 nM.

In test [1], `CC(=O)Nc1nc2ccc(Oc3cccc(NC(=O)c4cccc(C(C)(C)C#N)c4Cl)c3)cc2s1` [Example A41, N-(3-{[2-(acetylamino)-1,3-benzothiazol-6-yl]oxy}phenyl)-2-chloro-3-(1-cyano-1-methylethyl)benzamide] gave an IC50 of less than 500 nM. Same read-out and setting: for `CC(=O)Nc1nc2ccc(Oc3cc(NC(=O)c4cccc(C(C)(C)C#N)c4Cl)ccc3F)cc2s1` [Example A47, N-(3-{[2-(acetylamino)-1,3-benzothiazol-6-yl]oxy}-4-fluorophenyl)-2-chloro-3-(1-cyano-1-methylethyl)benzamide] the value was less than 500 nM. On the same count and under the same terms, for `CC(=O)Nc1nc2ccc(Oc3ccc(C)c(NC(=O)c4cccc(C(C)(C)C#N)c4)c3)cc2s1` [Example A49, N-(5-{[2-(acetylamino)-1,3-benzothiazol-6-yl]oxy}-2-methylphenyl)-3-(1-cyano-1-methylethyl)benzamide] the value was less than 500 nM.

One may read the IC50 as the concentration that gives 50% inhibition.
